Source: ChEMBL document CHEMBL1697692, “Developing structure-activity relationships for the prediction of hepatotoxicity” (Chem Res Toxicol, 2010)
Numbered stars: 1 amine (or outer) side, 2 acyl side, 3 side chain; on linkers, the order of the positions; unused ones are H or OH. Bridge positions count the residues as written; N and C are the ends. Square brackets hold non-standard residues; d marks the D form. Peptide text beside a SMILES is read from it. I, II: the chains in the order shown. Actinocin(9to1) = Cc1c2oc3c(C)ccc(C(=O)[*:1])c3nc-2c(C(=O)[*:2])c(N)c1=O; NMeV = CN[C@H](C(=O)O)C(C)C; Sar = CNCC(=O)O

Test system: Hepatotoxicity
Test: Literature-mined public compounds from Greene et al multi-species hepatotoxicity modelling dataset

## C[C@H](C(=O)O)c1ccc2oc(-c3ccc(F)cc3)nc2c1 [FLUNOXAPROFEN]
  Hepatotoxicity: WE: Weak evidence (<10 case reports) of human hepatotoxicity

## O=C(OCC(O)CO)c1ccccc1Nc1ccnc2cc(Cl)ccc12 (centres undefined) [GLAFENINE]
  Hepatotoxicity: HH: Evidence of human hepatotoxicity

## CC(C)(C)NCC(O)c1cc(O)cc(O)c1.O=S(=O)(O)O (centres undefined)
  Hepatotoxicity: HH: Evidence of human hepatotoxicity

## O=c1[nH]c(=O)n([C@@H]2O[C@H](CO)[C@@H](O)[C@@H]2F)cc1I [FIALURIDINE]
  Hepatotoxicity: HH: Evidence of human hepatotoxicity

## CC[N+](C)(C)c1cccc(O)c1.[Cl-] [EDROPHONIUM CHLORIDE]
  Hepatotoxicity: NE: No evidence of hepatotoxicity in any species

## CN1c2ccccc2C(NCCCCCCC(=O)O)c2ccc(Cl)cc2S1(=O)=O (centres undefined) [TIANEPTINE]
  Hepatotoxicity: HH: Evidence of human hepatotoxicity

## Cc1c(F)c(N2CCNC(C)C2)cc2c1c(=O)c(C(=O)O)cn2C1CC1 (centres undefined) [GREPAFLOXACIN]
  Hepatotoxicity: HH: Evidence of human hepatotoxicity

## c1ccc2c(c1)Nc1ccccc1S2 [PHENOTHIAZINE]
  Hepatotoxicity: HH: Evidence of human hepatotoxicity

## O=C1NC(=O)C(O)(O)C(=O)N1
  Hepatotoxicity: NE: No evidence of hepatotoxicity in any species

## O=P1(NCCCl)OCCCN1CCCl (centres undefined) [IFOSFAMIDE]
  Hepatotoxicity: HH: Evidence of human hepatotoxicity

## CN1C(C(=O)Nc2ccccn2)=C(O)c2ccccc2S1(=O)=O [PIROXICAM]
  Hepatotoxicity: HH: Evidence of human hepatotoxicity

## COc1ccc(OC)c(C(O)C(C)N)c1.Cl (centres undefined) [METHOXAMINE HYDROCHLORIDE]
  Hepatotoxicity: NE: No evidence of hepatotoxicity in any species

## POTASSIUM DICHROMATE
  Hepatotoxicity: AH: Evidence for animal hepatotoxicity but not tested in humans

## ClC(Cl)Cl [CHLOROFORM]
  Hepatotoxicity: AH: Evidence for animal hepatotoxicity but not tested in humans

## ClC(Cl)(Cl)Cl [CARBON TETRACHLORIDE]
  Hepatotoxicity: HH: Evidence of human hepatotoxicity

## CN(C)N=O [N-NITROSODIMETHYLAMINE]
  Hepatotoxicity: AH: Evidence for animal hepatotoxicity but not tested in humans

## NC(CS/C(Cl)=C/Cl)C(=O)O (centres undefined)
  Hepatotoxicity: AH: Evidence for animal hepatotoxicity but not tested in humans

## Cc1ccc(C)c(OCCCC(C)(C)C(=O)O)c1 [GEMFIBROZIL]
  Hepatotoxicity: HH: Evidence of human hepatotoxicity

## O=C(O)c1cc(-c2ccc(F)cc2F)ccc1O [DIFLUNISAL]
  Hepatotoxicity: HH: Evidence of human hepatotoxicity

## COCC(=O)O [METHOXYACETIC ACID]
  Hepatotoxicity: AH: Evidence for animal hepatotoxicity but not tested in humans

## Nc1c2c(nc3ccccc13)CCCC2 [TACRINE]
  Hepatotoxicity: AH: Evidence for animal hepatotoxicity but not tested in humans

## CCC1(c2ccccc2)C(=O)NCNC1=O [PRIMIDONE]
  Hepatotoxicity: NE: No evidence of hepatotoxicity in any species

## CCCOc1ccc2nc(NC(=O)OC)[nH]c2c1 [OXIBENDAZOLE]
  Hepatotoxicity: AH: Evidence for animal hepatotoxicity but not tested in humans

## Cl[C@H]1[C@H](Cl)[C@@H](Cl)[C@@H](Cl)[C@H](Cl)[C@H]1Cl (stereo in doubt; form 1) [LINDANE]
  Hepatotoxicity: NE: No evidence of hepatotoxicity in any species

## Cc1nnc(NS(=O)(=O)c2ccc(N)cc2)s1 [SULFAMETHIZOLE]
  Hepatotoxicity: HH: Evidence of human hepatotoxicity

## O=[As][As+](=O)[O-] (centres undefined) [ARSENIC TRIOXIDE]
  Hepatotoxicity: HH: Evidence of human hepatotoxicity

## NCCC(O)(P(=O)(O)O)P(=O)(O)O [PAMIDRONIC ACID]
  Hepatotoxicity: NE: No evidence of hepatotoxicity in any species

## CC(=O)Nc1nnc(S(N)(=O)=O)s1 [ACETAZOLAMIDE]
  Hepatotoxicity: HH: Evidence of human hepatotoxicity

## CC(C(=O)O)c1cccc(C(=O)c2ccccc2)c1 (centres undefined) [KETOPROFEN]
  Hepatotoxicity: NE: No evidence of hepatotoxicity in any species

## CCCCCOC(=O)c1ccccc1C(=O)OCCCCC
  Hepatotoxicity: AH: Evidence for animal hepatotoxicity but not tested in humans

## CC(=O)Nc1ccc2c(c1)Cc1ccccc1-2 [2-ACETYLAMINOFLUORENE]
  Hepatotoxicity: HH: Evidence of human hepatotoxicity

## CC(C(=O)O)c1ccc(-c2ccccc2)c(F)c1 (centres undefined) [FLURBIPROFEN]
  Hepatotoxicity: HH: Evidence of human hepatotoxicity

## CN(C)[C@@H]1C(O)=C(C(N)=O)C(=O)[C@@]2(O)C(O)=C3C(=O)c4c(O)ccc(Cl)c4[C@@](C)(O)[C@H]3C[C@@H]12.Cl [CHLORTETRACYCLINE HYDROCHLORIDE]
  Hepatotoxicity: HH: Evidence of human hepatotoxicity

## CCCC(C)(COC(N)=O)COC(N)=O [MEPROBAMATE]
  Hepatotoxicity: HH: Evidence of human hepatotoxicity

## CC(=O)N1CCN(c2ccc(OCC3COC(Cn4ccnc4)(c4ccc(Cl)cc4Cl)O3)cc2)CC1 (centres undefined) [KETOCONAZOLE]
  Hepatotoxicity: HH: Evidence of human hepatotoxicity

## CO[C@H]1/C=C/O[C@@]2(C)Oc3c(C)c(O)c4c(c3C2=O)C2=NC3(CCN(CC(C)C)CC3)NC2=C(NC(=O)/C(C)=C\C=C\[C@H](C)[C@H](O)[C@@H](C)[C@@H](O)[C@@H](C)[C@H](OC(C)=O)[C@@H]1C)C4=O [RIFABUTIN]
  Hepatotoxicity: HH: Evidence of human hepatotoxicity

## Cc1c2oc3c(C)ccc(C(=O)N[C@@H]4C(=O)N[C@H](C(C)C)C(=O)N5CCC[C@H]5C(=O)N(C)CC(=O)N(C)[C@@H](C(C)C)C(=O)O[C@@H]4C)c3nc-2c(C(=O)N[C@@H]2C(=O)N[C@H](C(C)C)C(=O)N3CCC[C@H]3C(=O)N(C)CC(=O)N(C)[C@@H](C(C)C)C(=O)O[C@@H]2C)c(N)c1=O [DACTINOMYCIN] (I: T[dV]P[Sar][NMeV] / II: T[dV]P[Sar][NMeV]; ester I:1-I:C, II:1-II:C; linker I:N-II:N via Actinocin(9to1))
  Hepatotoxicity: HH: Evidence of human hepatotoxicity

## Nc1ccc(C(=O)O)c(O)c1 [AMINOSALICYLIC ACID]
  Hepatotoxicity: HH: Evidence of human hepatotoxicity

## CCc1oc2ccccc2c1C(=O)c1cc(Br)c(O)c(Br)c1 [BENZBROMARONE]
  Hepatotoxicity: HH: Evidence of human hepatotoxicity

## COc1ccc2[nH]cc(CCNC(C)=O)c2c1 [MELATONIN]
  Hepatotoxicity: NE: No evidence of hepatotoxicity in any species

## COC(=O)Nc1nc2ccc(C(=O)c3cccs3)cc2[nH]1 [NOCODAZOLE]
  Hepatotoxicity: NE: No evidence of hepatotoxicity in any species

## CC[N+](C)(CC)CCOC(=O)C(O)(c1ccccc1)C1CCCCC1 (centres undefined) [OXYPHENONIUM]
  Hepatotoxicity: NE: No evidence of hepatotoxicity in any species

## NCC1(CC(=O)O)CCCCC1 [GABAPENTIN]
  Hepatotoxicity: NE: No evidence of hepatotoxicity in any species

## CCN(CC)CCNC(=O)c1cc(Cl)c(N)cc1OC.Cl
  Hepatotoxicity: HH: Evidence of human hepatotoxicity

## CC1=C(C(=O)O)N2C(=O)[C@@H](NC(=O)[C@H](N)C3=CCC=CC3)[C@H]2SC1 [CEPHRADINE]
  Hepatotoxicity: NE: No evidence of hepatotoxicity in any species

## Clc1ccccc1C(c1ccccc1)(c1ccccc1)n1ccnc1 [CLOTRIMAZOLE]
  Hepatotoxicity: WE: Weak evidence (<10 case reports) of human hepatotoxicity

## C[C@]12CC[C@@H]3c4ccc(O)cc4CC[C@H]3[C@@H]1CC[C@@H]2O[C@@H]1O[C@H](C(=O)O)[C@@H](O)[C@H](O)[C@H]1O [ESTRADIOL 17B GLUCURONIDE]
  Hepatotoxicity: HH: Evidence of human hepatotoxicity

## C[C@@H]1[C@H](O)[C@@H](C)/C=C/C=C/C=C/C=C/C=C/C=C/C=C/[C@H](O[C@@H]2O[C@H](C)[C@@H](O)[C@H](N)[C@@H]2O)C[C@@H]2O[C@](O)(C[C@@H](O)C[C@@H](O)[C@H](O)CC[C@@H](O)C[C@@H](O)CC(=O)O[C@H]1C)C[C@H](O)[C@H]2C(=O)O [AMPHOTERICIN B]
  Hepatotoxicity: WE: Weak evidence (<10 case reports) of human hepatotoxicity

## CN(C)CCN(Cc1cccs1)c1ccccn1
  Hepatotoxicity: HH: Evidence of human hepatotoxicity

## C[C@](N)(Cc1ccc(O)c(O)c1)C(=O)O [METHYLDOPA]
  Hepatotoxicity: HH: Evidence of human hepatotoxicity

## CN1CCC(=C2c3ccccc3CCc3cccnc32)CC1.O=C(O)/C=C\C(=O)O.O=C(O)/C=C\C(=O)O [AZATADINE MALEATE]
  Hepatotoxicity: HH: Evidence of human hepatotoxicity

## O=C1NCN(c2ccccc2)C12CCN(CCCC(c1ccc(F)cc1)c1ccc(F)cc1)CC2
  Hepatotoxicity: HH: Evidence of human hepatotoxicity

## CCc1ccc(CCOc2ccc(CC3SC(=O)NC3=O)cc2)nc1 (centres undefined) [PIOGLITAZONE]
  Hepatotoxicity: WE: Weak evidence (<10 case reports) of human hepatotoxicity

## Cl.Clc1cccc(Cl)c1NC1=NCCN1 [CLONIDINE HYDROCHLORIDE]
  Hepatotoxicity: HH: Evidence of human hepatotoxicity

## Sc1ncnc2nc[nH]c12 [MERCAPTOPURINE ANHYDROUS]
  Hepatotoxicity: HH: Evidence of human hepatotoxicity

## Cc1ccc(S(=O)(=O)NC(=O)NN2CCCCCC2)cc1 [TOLAZAMIDE]
  Hepatotoxicity: HH: Evidence of human hepatotoxicity

## TRANSPLATIN
  Hepatotoxicity: AH: Evidence for animal hepatotoxicity but not tested in humans

## COc1cc(CNC(=O)CCCC/C=C/C(C)C)ccc1O [CAPSAICIN]
  Hepatotoxicity: NE: No evidence of hepatotoxicity in any species

## CCOC(=O)C1(c2ccccc2)CCN(CCC(C#N)(c2ccccc2)c2ccccc2)CC1.Cl [DIPHENOXYLATE HYDROCHLORIDE]
  Hepatotoxicity: NE: No evidence of hepatotoxicity in any species

## CC(C)(O/N=C(\C(=O)N[C@@H]1C(=O)N2C(C(=O)[O-])=C(C[n+]3ccccc3)CS[C@H]12)c1csc(N)n1)C(=O)O [CEFTAZIDIME]
  Hepatotoxicity: WE: Weak evidence (<10 case reports) of human hepatotoxicity

## CC[C@H]1OC(=O)[C@H](C)[C@@H](O[C@H]2C[C@@](C)(OC)[C@@H](O)[C@H](C)O2)[C@H](C)[C@@H](O[C@@H]2O[C@H](C)C[C@H](N(C)C)[C@H]2O)[C@](C)(OC)C[C@@H](C)C(=O)[C@H](C)[C@@H](O)[C@]1(C)O [CLARITHROMYCIN]
  Hepatotoxicity: HH: Evidence of human hepatotoxicity

## CN(C)C(=N)N=C(N)N [METFORMIN]
  Hepatotoxicity: WE: Weak evidence (<10 case reports) of human hepatotoxicity

## CCCCc1nc(Cl)c(CO)n1Cc1ccc(-c2ccccc2-c2nn[nH]n2)cc1 [LOSARTAN]
  Hepatotoxicity: HH: Evidence of human hepatotoxicity

## CN1CCC[C@@H]1CCO[C@](C)(c1ccccc1)c1ccc(Cl)cc1.O=C(O)/C=C/C(=O)O [CLEMASTINE FUMARATE]
  Hepatotoxicity: NE: No evidence of hepatotoxicity in any species
